Laboratory results as given in PubChem BioAssay AID248 (DTP/NCI, 2004).
Values joined by “and” are separate entries in the source; they are usually repeats but may differ in a detail not shown here. Identical values can stand only once. Toxic doses and inconclusive results are not listed. Rule as the data show it: active = T/C of 150% or more; inactive = T/C below 125%.

System: L1210 leukemia ip in BDF1 mice, survival T/C
Experiment: NCI In Vivo Anticancer Drug Screen. Data for tumor model L1210 Leukemia (intraperitoneal) in B6D2F1 (BDF1) mice
Conditions: higher = longer survival
Summary of the method: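 Transplanted-tumor mice were given test agent; controls received vehicle only. Survival readings from the two groups were divided (treated over control).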

[1] = endpoint: mean survival time, dose: 100.0 mg/kg/injection, schedule: Q01DX001 (ip), vehicle: saline with Tween-80
[2] = endpoint: mean survival time, dose: 200.0 mg/kg/injection, schedule: Q01DX001 (ip), vehicle: saline with Tween-80
[3] = endpoint: mean survival time, dose: 100.0 mg/kg/injection, schedule: Q01DX009 (ip), vehicle: saline with Tween-80
[4] = endpoint: mean survival time, dose: 200.0 mg/kg/injection, schedule: Q01DX009 (ip), vehicle: saline with Tween-80
[5] = endpoint: mean survival time, dose: 400.0 mg/kg/injection, schedule: Q01DX009 (ip), vehicle: saline with Tween-80
[6] = endpoint: mean survival time, dose: 100.0 mg/kg/injection, schedule: Q01DX001 (ip), vehicle: other
[7] = endpoint: mean survival time, dose: 100.0 mg/kg/injection, schedule: Q01DX009 (ip), vehicle: Klucel (hydroxypropylcellulose) (HPC)
[8] = endpoint: mean survival time, dose: 200.0 mg/kg/injection, schedule: Q01DX009 (ip), vehicle: Klucel (hydroxypropylcellulose) (HPC)
[9] = endpoint: mean survival time, dose: 100.0 mg/kg/injection, schedule: Q01DX001 (ip), vehicle: saline
[10] = endpoint: mean survival time, dose: 200.0 mg/kg/injection, schedule: Q01DX001 (ip), vehicle: saline
[11] = endpoint: mean survival time, dose: 200.0 mg/kg/injection, schedule: Q01DX001 (ip), vehicle: other
[12] = endpoint: mean survival time, dose: 400.0 mg/kg/injection, schedule: Q01DX001 (ip), vehicle: other
[13] = endpoint: mean survival time, dose: 25.0 mg/kg/injection, schedule: Q01DX009 (ip), vehicle: saline
[14] = endpoint: mean survival time, dose: 50.0 mg/kg/injection, schedule: Q01DX009 (ip), vehicle: saline
[15] = endpoint: mean survival time, dose: 400.0 mg/kg/injection, schedule: Q01DX001 (ip), vehicle: saline

Measured: T/C

CC1(C)N=C(N)N=C(N)N1c1cccc(OCCCOc2ccccc2)c1
inactive: endpoint: mean survival time, dose: 200.0 mg/kg/injection, schedule: Q01DX001 (ip), vehicle: Klucel (hydroxypropylcellulose) (HPC) 102 % of control

Sc1cc(Cl)c(Cl)cc1Cl
inactive: [1] 97 % of control | [2] 90 % of control

Cc1ccc(C)c(CNC(=O)C2CCCCC2C(=O)O)c1 (configuration not stated)
inactive: [3] 101 % of control | [4] 112 % of control | [5] 109 % of control

O=S(O)c1ncnc2nc[nH]c12
inactive: endpoint: mean survival time, dose: 100.0 mg/kg/injection, schedule: Q04DX003 (ip), vehicle: saline 101 % of control | endpoint: mean survival time, dose: 200.0 mg/kg/injection, schedule: Q04DX003 (ip), vehicle: saline 106 % of control | endpoint: mean survival time, dose: 400.0 mg/kg/injection, schedule: Q04DX003 (ip), vehicle: saline 95 % of control

Cc1ccc(CCNc2ncnc(Cl)c2N)cc1
inactive: endpoint: mean survival time, dose: 50.0 mg/kg/injection, schedule: Q01DX001 (ip), vehicle: other 88 % of control | [6] 92 % of control

CCc1ccc(N=C(C)c2c(O)cc(C)oc2=O)cc1
inactive: [7] 96 % of control | [8] 100 % of control | endpoint: mean survival time, dose: 400.0 mg/kg/injection, schedule: Q01DX009 (ip), vehicle: Klucel (hydroxypropylcellulose) (HPC) 96 % of control

NN=O
inactive: [9] 97 % of control | [10] 101 % of control

COC(=O)C1=C(\N2CCOCC2)CCCCC/C=C\1C(=O)OC
inactive: [3] 94 % of control | [4] 91 % of control | [5] 89 % of control

COC(=O)c1cc(S(=O)(=O)c2cc(C(=O)OC)c(O)cc2OC)c(OC)cc1O
inactive: endpoint: mean survival time, dose: 100.0 mg/kg/injection, schedule: Q04DX002 (ip), vehicle: carboxymethylcellulose (CMC) 95 % of control | endpoint: mean survival time, dose: 200.0 mg/kg/injection, schedule: Q04DX002 (ip), vehicle: carboxymethylcellulose (CMC) 95 % of control | endpoint: mean survival time, dose: 400.0 mg/kg/injection, schedule: Q04DX002 (ip), vehicle: carboxymethylcellulose (CMC) 98 % of control

Cn1c(O)c(N=NC(=O)Cc2c[nH]c3ccccc23)c2ccccc21
inactive: [6] 101 % of control | [11] 95 % of control | [12] 95 % of control

C[C@H]1C(=O)O[C@@H]2CCN3CC=C(COC(=O)[C@](C)(O)[C@@]1(C)O)[C@H]23
inactive: endpoint: mean survival time, dose: 3.13 mg/kg/injection, schedule: Q01DX010 (ip), vehicle: saline 93 % of control and 94 % of control | endpoint: mean survival time, dose: 6.25 mg/kg/injection, schedule: Q01DX009 (ip), vehicle: saline 95 % of control and 104 % of control | endpoint: mean survival time, dose: 6.25 mg/kg/injection, schedule: Q01DX010 (ip), vehicle: saline 96 % of control and 87 % of control | endpoint: mean survival time, dose: 12.5 mg/kg/injection, schedule: Q01DX009 (ip), vehicle: saline 92 % of control and 104 % of control | endpoint: mean survival time, dose: 12.5 mg/kg/injection, schedule: Q01DX010 (ip), vehicle: saline 92 % of control and 93 % of control | endpoint: mean survival time, dose: 17.6 mg/kg/injection, schedule: Q01DX Z (ip), vehicle: methylcellulose (MC) 98 % of control | [13] 103 % of control and 104 % of control | endpoint: mean survival time, dose: 25.0 mg/kg/injection, schedule: Q01DX010 (ip), vehicle: saline 92 % of control and 94 % of control | endpoint: mean survival time, dose: 26.8 mg/kg/injection, schedule: Q01DX Z (ip), vehicle: methylcellulose (MC) 101 % of control | endpoint: mean survival time, dose: 40.0 mg/kg/injection, schedule: Q01DX Z (ip), vehicle: methylcellulose (MC) 101 % of control | [14] 105 % of control and 121 % of control | endpoint: mean survival time, dose: 60.0 mg/kg/injection, schedule: Q01DX Z (ip), vehicle: methylcellulose (MC) 95 % of control | endpoint: mean survival time, dose: 90.0 mg/kg/injection, schedule: Q01DX Z (ip), vehicle: methylcellulose (MC) 106 % of control | endpoint: mean survival time, dose: 135.0 mg/kg/injection, schedule: Q01DX Z (ip), vehicle: methylcellulose (MC) 111 % of control and 113 % of control | endpoint: mean survival time, dose: 193.0 mg/kg/injection, schedule: Q01DX Z (ip), vehicle: methylcellulose (MC) 108 % of control | endpoint: median survival time, dose: 6.25 mg/kg/injection, schedule: Q01DX009 (ip), vehicle: saline 95 % of control and 100 % of control | endpoint: median survival time, dose: 12.5 mg/kg/injection, schedule: Q01DX009 (ip), vehicle: saline 100 % of control | endpoint: median survival time, dose: 25.0 mg/kg/injection, schedule: Q01DX009 (ip), vehicle: saline 100 % of control | endpoint: median survival time, dose: 50.0 mg/kg/injection, schedule: Q01DX009 (ip), vehicle: saline 100 % of control and 110 % of control

Cc1ccc(C(C)CC(=O)O)cc1 (configuration not stated)
inactive: endpoint: mean survival time, dose: 100.0 mg/kg/injection, schedule: Q01DX001 (ip), vehicle: carboxymethylcellulose (CMC) 101 % of control | endpoint: mean survival time, dose: 200.0 mg/kg/injection, schedule: Q01DX001 (ip), vehicle: carboxymethylcellulose (CMC) 95 % of control | endpoint: mean survival time, dose: 400.0 mg/kg/injection, schedule: Q01DX001 (ip), vehicle: carboxymethylcellulose (CMC) 93 % of control

COC[CH2][Hg][O]C(C)=O
inactive: endpoint: mean survival time, dose: 3.12 mg/kg/injection, schedule: Q04DX002 (ip), vehicle: Klucel (hydroxypropylcellulose) (HPC) 98 % of control | endpoint: mean survival time, dose: 6.25 mg/kg/injection, schedule: Q04DX002 (ip), vehicle: Klucel (hydroxypropylcellulose) (HPC) 92 % of control | endpoint: mean survival time, dose: 12.5 mg/kg/injection, schedule: Q04DX002 (ip), vehicle: Klucel (hydroxypropylcellulose) (HPC) 88 % of control and 90 % of control

CC(C)CCC(=O)CCC1CCCCC1
inactive: [9] 92 % of control | [10] 92 % of control | [15] 94 % of control

Cc1ccc(C2(C)CC/C(=N\NC(=O)c3ccccc3)c3cc(C)c(C)cc32)cc1C (configuration not stated)
inactive: [9] 97 % of control | [10] 98 % of control | [15] 104 % of control

CSc1ccc(NCN2C(=O)c3ccccc3C2=O)cc1
inactive: [7] 102 % of control | [8] 100 % of control

NC(N)=NC(N)=Nc1ccc([As](=O)(O)O)c(O)c1
inactive: [13] 101 % of control | endpoint: mean survival time, dose: 40.0 mg/kg/injection, schedule: Q01DX009 (ip), vehicle: Klucel (hydroxypropylcellulose) (HPC) 108 % of control | [14] 98 % of control | endpoint: mean survival time, dose: 80.0 mg/kg/injection, schedule: Q01DX009 (ip), vehicle: Klucel (hydroxypropylcellulose) (HPC) 101 % of control | endpoint: mean survival time, dose: 100.0 mg/kg/injection, schedule: Q01DX009 (ip), vehicle: saline 108 % of control | endpoint: mean survival time, dose: 160.0 mg/kg/injection, schedule: Q01DX009 (ip), vehicle: Klucel (hydroxypropylcellulose) (HPC) 104 % of control

O=C(OCCN1CCCCCCCC1)C(c1ccccc1)c1ccccc1
inactive: [6] 101 % of control | [11] 90 % of control | [12] 110 % of control

CCCCCCCCNC(C)C1=C(O)c2ccccc2C(=O)C1=O (configuration not stated)
inactive: [1] 89 % of control | [2] 86 % of control | endpoint: mean survival time, dose: 400.0 mg/kg/injection, schedule: Q01DX001 (ip), vehicle: saline with Tween-80 86 % of control

COC(=O)C1=C2Nc3ccccc3C23CCN2CC4(CC5CC67CCOC6CCN6CCC8(c9cccc(OC)c9N(C4)C58O)C67)C4OCCC4(C1)C23 (configuration not stated)
inactive: endpoint: mean survival time, dose: 200.0 mg/kg/injection, schedule: Q04DX003 (ip), vehicle: Klucel (hydroxypropylcellulose) (HPC) 88 % of control | endpoint: mean survival time, dose: 400.0 mg/kg/injection, schedule: Q04DX003 (ip), vehicle: Klucel (hydroxypropylcellulose) (HPC) 93 % of control
